Experimental data reported in the supplement of paper PMC11061612.

What was measured:
Experiment in all cases: Bliss excess, mean over the matrix (fraction); higher = more synergy
[1] = system: SW837 (Colorectal Carcinoma)
Method in brief: (§1)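 Bliss excess equals the observed combination effect minus the expected value EA + EB − EA·EB, where EA and EB are the effects of each agent alone. Combination Emax is the second-highest inhibition within the matrix. Inhibition was scaled from CellTiter-Glo 2.0 luminescence, with 0 set by vehicle wells and 1 by blank wells, after 72 hours of two-drug dosing of cells plated in 1536-well plates.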

[2] = system: KM12 (Colorectal Carcinoma)
Method in brief: as §1

[3] = system: MKN28 (Gastric Carcinoma)
Method in brief: as §1

[4] = system: HDQ-P1 (Breast Carcinoma)
Method in brief: as §1

[5] = system: SW1417 (Colorectal Carcinoma)
Method in brief: as §1

[6] = system: KARPAS-45 (T-Lymphoblastic Leukemia)
Method in brief: as §1

[7] = system: NCI-H1792 (Lung Adenocarcinoma)
Method in brief: as §1

[8] = system: BFTC-905 (Bladder Carcinoma)
Method in brief: as §1

[9] = system: CAMA-1 (Breast Carcinoma)
Method in brief: as §1

TC-71 (Ewing's Sarcoma) = system: TC-71 (Ewing's Sarcoma)
Method in brief: as §1

[10] = system: K-562 (Chronic Myelogenous Leukemia)
Method in brief: as §1

[11] = system: GR-ST (B-Lymphoblastic Leukemia)
Method in brief: as §1

[12] = system: TOV-112D (Ovarian Carcinoma)
Method in brief: as §1

[13] = system: DND-41 (T-Lymphoblastic Leukemia)
Method in brief: as §1

[14] = system: TE-6 (Esophageal Squamous Cell Carcinoma)
Method in brief: as §1

MEL-JUSO (Melanoma) = system: MEL-JUSO (Melanoma)
Method in brief: as §1

WIL2-NS (Non-Cancerous) = system: WIL2-NS (Non-Cancerous)
Method in brief: as §1

[15] = system: L-540 (Hodgkin's Lymphoma)
Method in brief: as §1

[16] = system: EVSA-T (Breast Carcinoma)
Method in brief: as §1

[17] = system: NCI-H847 (Small Cell Lung Carcinoma)
Method in brief: as §1

| SMILES | Bliss excess [1] | Bliss excess [2] | Bliss excess [3] | Bliss excess [4] | Bliss excess [5] | Bliss excess [6] | Bliss excess [7] | Bliss excess [8] | Bliss excess [9] | Bliss excess (TC-71 (Ewing's Sarcoma)) | Bliss excess [10] | Bliss excess [11] | Bliss excess [12] | Bliss excess [13] | Bliss excess [14] | Bliss excess (MEL-JUSO (Melanoma)) | Bliss excess (WIL2-NS (Non-Cancerous)) | Bliss excess [15] | Bliss excess [16] | Bliss excess [17] |
| --- | --- | --- | --- | --- | --- | --- | --- | --- | --- | --- | --- | --- | --- | --- | --- | --- | --- | --- | --- | --- |
| CCc1c2c(nc3ccc(O)cc13)-c1cc3c(c(=O)n1C2)COC(=O)[C@]3(O)CC [SN-38] + CN(C)CCCOc1ccc(-c2ccc3ncc4c(c3c2)n(C2CCOCC2)c(=O)n4C)cn1 [AZD0156] (first compound max 0.3 µM, 7x7, partner max 1 µM) | -0.0613 | 0.0711 | 0.0117 | 0.0065 | -0.033 | -0.0082 | 0.0517 | 0.0608 | -0.0477 | 0.0736 | 0.0331 | -0.0319 | 0.0401 | -0.0584 | -0.0254 | 0.0265 | 0.08 | 0.0206 | -0.0354 | -0.023 |
| CCN(CCO)CCCOc1ccc2c(Nc3cc(CC(=O)Nc4cccc(F)c4)[nH]n3)ncnc2c1 [AZD2811] + O=C(c1cc(Cc2n[nH]c(=O)c3ccccc23)ccc1F)N1CCN(C(=O)C2CC2)CC1 [Olaparib] (first compound max 1 µM, 7x7, partner max 10 µM) | 0.0027 | 0.0068 | -0.0319 | 0.0076 | -0.0456 | -0.115 | -0.0029 | -0.0029 | -0.0308 | -0.0772 | 0.0216 | -0.0358 | 0.0355 | -0.0059 | -0.0006 | -0.0015 | -0.033 | 0.0113 | 0.0242 | -0.0464 |
| CN(C)CCCOc1ccc(-c2ccc3ncc4c(c3c2)n(C2CCOCC2)c(=O)n4C)cn1 [AZD0156] + C[C@@H]1COCCN1C2=NC(=NC(=C2)C3(CC3)[S@](=N)(=O)C)C4=C5C=CNC5=NC=C4 [AZD6738] (first compound max 1 µM, 7x7, partner max 10 µM) | 0.0071 | 0.0161 | -0.0092 | 0.0214 | -0.0019 | 0.0333 | 0.0254 | 0.0463 | -0.0444 | 0.069 | -0.0079 | -0.0006 | 0.0136 | -0.0034 | 0.0225 | 0.0108 | 0.0131 | -0.0163 | 0.0081 | -0.0116 |
| COc1cccc2c1C(=O)c1c(O)c3c(c(O)c1C2=O)C[C@@](O)(C(=O)CO)C[C@@H]3O[C@H]1C[C@H](N)[C@H](O)[C@H](C)O1 [Doxorubicin] + Cc1cc2ncnn2cc1Nc1ncc2c(n1)n(C1CCOCC1)c(=O)n2C [AZD7648] (first compound max 1 µM, 7x7, partner max 10 µM) | 0.0068 | 0.0554 | -0.0179 | 0.0561 | 0.0216 | -0.0006 | 0.067 | 0.131 | 0.0266 | 0.162 | 0.076 | 0.0279 | 0.0679 | 0.115 | -0.0541 | 0.0309 | 0.0885 | 0.0793 | 0.0503 | 0.124 |
| CN(CCO)CC[C@H](CSc1ccccc1)Nc1ccc(S(=O)(=O)NC(=O)c2ccc(N3CCC([C@@H](O)c4ccccc4-c4ccc(Cl)cc4)CC3)cc2)cc1S(=O)(=O)C(F)(F)F [AZD4320] + CCN(CCO)CCCOc1ccc2c(Nc3cc(CC(=O)Nc4cccc(F)c4)[nH]n3)ncnc2c1 [AZD2811] (first compound max 1 µM, 7x7, partner max 1 µM) | 0.0082 | 0.0173 | -0.0107 | 0.0258 | -0.0306 | -0.0137 | -0.0267 | 0.121 | 0.0961 | -0.0299 | 0.0055 | -0.0272 | 0.0419 | 0.0382 | 0.0228 | 0.0289 | 0.0006 | 0.0985 | 0.156 | 0.0014 |
| CC1(C)CCC(CN2CCN(c3ccc(C(=O)NS(=O)(=O)c4ccc(NCC5CCOCC5)c([N+](=O)[O-])c4)c(Oc4cnc5[nH]ccc5c4)c3)CC2)=C(c2ccc(Cl)cc2)C1 [Venetoclax] + Cn1cnc2c(F)c(Nc3ccc(Br)cc3Cl)c(C(=O)NOCCO)cc21 [Selumetinib] (first compound max 1 µM, 7x7, partner max 3 µM) | -0.0129 | -0.0213 | -0.0012 | -0.0377 | -0.0165 | 0.0372 | 0 | -0.0116 | -0.0332 | -0.0255 | -0.0074 | -0.0318 | -0.0086 | -0.0048 | 0.0203 | -0.0481 | -0.0318 | -0.0159 | -0.017 | -0.0428 |
| Cc1c2c(nn1C)CSCc1cc(n(C)n1)CSc1cc(c3ccccc3c1)OCCCc1c(C(=O)O)n(C)c3c-2c(Cl)ccc13 [AZD5991] + C1CN(CCC1(C(=O)N[C@@H](CCO)C2=CC=C(C=C2)Cl)N)C3=NC=NC4=C3C=CN4 [Capivasertib] (first compound max 1 µM, 7x7, partner max 3 µM) | -0.0191 | 0.0136 | -0.0198 | 0.0072 | -0.0021 | 0.0484 | -0.019 | 0.0226 | 0.0993 | 0.0256 | 0.0462 | -0.0244 | -0.0181 | 0.0038 | -0.0177 | -0.0203 | -0.0169 | 0.0152 | -0.0074 | 0.0714 |
